In ChEMBL document CHEMBL5608245, “Inhibition of the EphA2-Sam/Ship2-Sam Association through Peptide Ligands: Studying the Combined Effect of Charge and Aromatic Character” (J Med Chem, 2024):

Columns and labels:
PC-3 = test: Cytotoxicity against human PC-3 cells assessed as reduction in cell viability at 50 uM incubated for 4 hrs by crystal violet staining based assay; assay type: toxicity; settings: pc-3, 4 h
NHDF = test: Cytotoxicity against human NHDF cells assessed as reduction in cell viability at 50 uM incubated for 4 hrs by crystal violet staining based assay; assay type: toxicity
[1] = Drug localization in human PC-3 cell cytoplasm at 50 uM incubated for 4 hrs by FITC staining based fluorescence microscopic analysis; assay type: ADME, subcellular; settings: pc-3, 4 h

- Drug uptake [1]: Active
SMILES: CSCC[C@H](NC(=O)[C@H](Cc1ccccc1)NC(=O)[C@H](CCCCN)NC(=O)[C@H](CC(=O)O)NC(=O)[C@H](CCC(=O)O)NC(=O)[C@H](CCCNC(=N)N)NC(=O)[C@H](CCCNC(=N)N)NC(=O)[C@@H](NC(=O)[C@@H]1CCCN1C(=O)CNC(=O)CNC(=O)CNC(=O)[C@H](CCC(N)=O)NC(=O)[C@@H]1CCCN1C(=O)[C@@H]1CCCN1C(=O)[C@H](CCCNC(=N)N)NC(=O)[C@H](CCCNC(=N)N)NC(=O)[C@H](CCCNC(=N)N)NC(=O)[C@H](CCC(N)=O)NC(=O)[C@H](CCCNC(=N)N)NC(=O)[C@H](CCCNC(=N)N)NC(=O)[C@H](CCCCN)NC(=O)[C@H](CCCCN)NC(=O)[C@H](CCCNC(=N)N)NC(=O)CNC(=O)[C@H](C)NC(C)=O)[C@@H](C)O)C(=O)N[C@@H](Cc1ccc(O)cc1)C(=O)N[C@@H](Cc1ccccc1)C(N)=O
- Activity (PC-3): Toxic
- Activity (NHDF): Toxic
